Measurements reported in patent US11691984B2, “Compounds and methods for DCAF-mediated protein degradation” (The Scripps Research Institute, priority 2018, dated 2023).
Each block holds one molecule with its values, some of them ahead of it.

Assays:
CRL(s) = experiment: isoTOP-ABPP of ligand-engaged cysteines in HEK293T cells; type: cell-based, human; details: 10 μM KB02-SLF, 2 h
Method: HEK293T cells were treated with DMSO or 10 μM KB02-SLF for 2 h. Cells were collected and subjected to isoTOP-ABPP sample preparation using the same protocol as described in Backus et al., “Proteome-wide covalent ligand discovery in native biological systems”, Nature 534: 570-574 (2016).

FLAG-FKBP12 = target: T1, FLAG-FKBP12 (Homo sapiens, UniProt P62942); experiment: Polyubiquitination of immunoprecipitated cytosolic FLAG-FKBP12 in HEK293T cells; type: cell-based; details: KB02-SLF 5 μM, MG132 10 μM, 2 hours
T1 construct: expressed in transfected cells; host or cells: HEK293T (lentiviral transduction, puromycin selection)
T1 sequence (P62942 whole entry): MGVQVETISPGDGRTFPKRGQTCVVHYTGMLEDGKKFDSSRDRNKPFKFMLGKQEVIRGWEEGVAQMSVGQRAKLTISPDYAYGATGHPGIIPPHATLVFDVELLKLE
Method: (§1) Cells were collected and lysed in 1% NP-40 lysis buffer (25 mM Tris-HCl pH 7.4, 150 mM NaCl, 10% glycerol, 1% Nonidet P-40) with complete protease inhibitor cocktail (Roche). Cells were vortexed and sonicated for 5 pulses (40%, 4). The supernatant was collected after centrifugation at 16,000 g for 10 min at 4° C. Protein concentration was determined by DC assay (Bio-Rad). Protein lysate was heated at 95° C. for 5 min in 1× Laemmli sample buffer. Proteins were resolved by 12% or 14% Novex Tris-Glycine Mini Gels (Invitrogen) and transferred to polyvinylidene fluoride (PVDF) membrane (0.2 Bio-Rad). The membrane was blocked with 5% BSA in TBST buffer (0.1% Tween 20, 20 mM Tris-HCl 7.6, 150 mM NaCl) at room temperature for 1 h. The antibody was diluted with fresh 5% BSA in TBST buffer (1:10000 dilution for FLAG, HA and β-Actin, 1:1000 dilution for others) and incubated with membrane (1 h room temperature for FLAG, HA and β-Actin, overnight 4° C. for others). Membrane was washed three times with TBST buffer and incubated with secondary antibody (1:5000 dilution in 5% BSA in TBST) at room temperature for 1 h. Membrane was washed three times with TBST buffer. The chemiluminescence signal in membrane was recorded after developing in ECL or ECL plus western blotting detection reagent using CL-XPosure film (Thermo Scientific). Relative band intensities were quantified using ImageJ. […]

[1] = tested on: HA-DCAF16 and FLAG-FKBP12_NLS; experiment: Co-immunoprecipitation of HA-DCAF16 with FLAG-FKBP12_NLS (ternary complex) in HEK293T cells; type: cell-based, human; details: KB02-SLF, cells pre-treated with MG132
Method: (§2) Cells were collected and lysed in 1% NP-40 lysis buffer (25 mM Tris-HCl pH 7.4, 150 mM NaCl, 10% glycerol, 1% Nonidet P-40) with complete protease inhibitor cocktail (Roche). Cells were vortexed and sonicated for 5 pulses (40%, 4). The supernatant was collected after centrifugation at 16,000 g for 10 min at 4° C. Protein concentration was determined by DC assay (Bio-Rad). Protein lysate was heated at 95° C. for 5 min in 1× Laemmli sample buffer. Proteins were resolved by 12% or 14% Novex Tris-Glycine Mini Gels (Invitrogen) and transferred to polyvinylidene fluoride (PVDF) membrane (0.2 Bio-Rad). The membrane was blocked with 5% BSA in TBST buffer (0.1% Tween 20, 20 mM Tris-HCl 7.6, 150 mM NaCl) at room temperature for 1 h. The antibody was diluted with fresh 5% BSA in TBST buffer (1:10000 dilution for FLAG, HA and β-Actin, 1:1000 dilution for others) and incubated with membrane (1 h room temperature for FLAG, HA and β-Actin, overnight 4° C. for others). Membrane was washed three times with TBST buffer and incubated with secondary antibody (1:5000 dilution in 5% BSA in TBST) at room temperature for 1 h. Membrane was washed three times with TBST buffer. The chemiluminescence signal in membrane was recorded after developing in ECL or ECL plus western blotting detection reagent using CL-XPosure film (Thermo Scientific). Relative band intensities were quantified using ImageJ.
Cells were collected and lysed in 1% NP-40 lysis buffer with complete protease inhibitor cocktail on ice for 10 min, followed by 5 pulses of sonication (40%, 4). After centrifugation at 16,000 g for 10 min at 4° C., the supernatant was collected. FLAG affinity gel (20 μL slurry per sample) was incubated with protein lysates at 4° C. for 1 h and washed four times with IP washing buffer. The affinity gel was heated at 95° C. for 10 min in 2× Laemmli sample buffer, followed by western blot analysis.

FLAG-FKBP12_NLS [2] = target: T2, FLAG-FKBP12_NLS (Homo sapiens, UniProt P62942); experiment: Anti-FLAG western blot of stably expressed nuclear FKBP12 (FLAG-FKBP12_NLS) in HEK293T cells; type: cell-based; design: expressed in transfected cells; host or cells: HEK293T, MDA-MB-231 and HEK293 DCAF16+/+ and DCAF16-/- clones (lentiviral pCDH-CMV-MCS-EF1-Puro); details: HEK293T
T2 sequence (P62942 whole entry): as above
Text: FLAG-tagged variants of FKBP12 (FLAG-FKBP12) or (2) FKBP12 with a C-terminal nuclear localization sequence (FLAG-FKBP12_NLS) were then stably expressed in HEK293T cells to provide cell models for evaluating cytosolic- and nuclear-localized E3-mediated degradation pathways, respectively.
(§3) FLAG-FKBP12 or FLAG-FKBP12_NLS lentivirus was generated by co-transfection of FLAG-FKBP12 or FLAG-FKBP12_NLS, pCMV-dR8.2 and pMD2.G into HEK 293T cells using FuGene 6 transfection reagent (Promega). Virus-containing medium were collected 48 h after transfection, filtered with […] filter, and used to transduce HEK293T and MDA-MB-231 cells in the presence of 10 μg/mL polybrene (Santa Cruz). 72 h after transduction, puromycin (2 μg/mL) was added to cells. HEK293T cells stably expressing FLAG-FKBP12 or FLAG-FKBP12_NLS were obtained after puromycin selection for 7 days. HEK293T cells stably expressing pCDH empty vector were generated in parallel as control.
shRNA lentivirus was generated by co-transfection of shRNA-containing vector, pCMV-dR8.2 and pMD2.G into HEK 293T cells using FuGene 6 transfection reagent (Promega). Virus-containing medium were collected 48 h after transfection and used to transiently transduce HEK293T cells stably expressing FLAG-FKBP12_NLS for 48 h. Lentiviral shRNAs targeting human DCAF16 or DTL were in pLKO.1 vector and purchased from Sigma. The sequences of shRNAs is described below.
as §2

FLAG-FKBP12_NLS [3] = target: T2, FLAG-FKBP12_NLS; experiment: Western blot of stably expressed FLAG-FKBP12_NLS in MDA-MB-231 cells; type: cell-based; design: expressed in transfected cells; host or cells: HEK293T, MDA-MB-231 and HEK293 DCAF16+/+ and DCAF16-/- clones (lentiviral pCDH-CMV-MCS-EF1-Puro); details: 1 μM, 8 hours
Method: as §3, §2

BRD4 = target: T3, BRD4 (Homo sapiens, UniProt O60885); experiment: Western blot of BRD4 in DCAF16−/− HEK293 cells; type: cell-based; details: 40 μM KB02-JQ1, 24 hours
T3 construct: degradation of endogenous BRD4 in HEK293T cells; endogenous in cells; host or cells: HEK293T (A10, A16); HEK293 DCAF16+/+ and DCAF16-/- clones (A11)
Method: DCAF16 CRISPR knockout HEK293 cell pools were generated by Synthego using nucleofection of Cas9-gRNA ribonucleoprotein (RNP) complex. Editing efficiency 48 h post nucleofection of cell pool was 88%. HEK293 editing cell pools were subjected to single cell sorting in The Flow Cytometry Core Facility at Scripps Research. Individual cell clone was grown in 96-well plate until the cells were confluent. To confirm the editing in DCAF16 gene, genomic DNAs from each clone were extracted using PureLink Genomic DNA Mini Kit (Invitrogen). DCAF16 gene was amplified by PCR and confirmed by DNA sequencing. Indel analysis was performed using ICE analysis from Synthego.
Cells were collected and lysed in 1% NP-40 lysis buffer (25 mM Tris-HCl pH 7.4, 150 mM NaCl, 10% glycerol, 1% Nonidet P-40) with complete protease inhibitor cocktail (Roche). Cells were vortexed and sonicated for 5 pulses (40%, 4). The supernatant was collected after centrifugation at 16,000 g for 10 min at 4° C. Protein concentration was determined by DC assay (Bio-Rad). Protein lysate was heated at 95° C. for 5 min in 1× Laemmli sample buffer. […] The chemiluminescence signal in membrane was recorded after developing in ECL or ECL plus western blotting detection reagent using CL-XPosure film (Thermo Scientific). Relative band intensities were quantified using ImageJ.

BRD4 and DCAF16 = target: T4, BRD4 and DCAF16 (Homo sapiens, UniProt O60885+Q9NXF7); experiment: Co-immunoprecipitation of BRD4-FLAG with HA-DCAF16 in HEK293T cells; type: cell-based; details: 10 μM KB02-JQ1, 10 μM MG132, 2 hours
T4 construct: expressed in transfected cells; host or cells: HEK293T (pRK5 vectors)
Method: as §1

SMILES: CCC(C)(C)C(=O)C(=O)N1CCCC[C@H]1C(=O)O[C@H](CCc1ccc(OC)c(OC)c1)c1cccc(NC(=O)CCOCCOCCNC(=O)COc2ccc3c(c2)CCCN3C(=O)CCl)c1 [KB02-SLF, (R)-1-(3-(3-(2-(2-(2-((1-(2-chloroacetyl)-1,2,3,4-tetrahydroquinolin-6-yl)oxy)acetamido)ethoxy)ethoxy)propanamido)phenyl)-3-(3,4-dimethoxyphenyl)propyl (S)-1-(3,3-dimethyl-2-oxopentanoyl)piperidine-2-carboxylate]
strongly engaged (>75%) cysteines on CRL(s) (CRL(s)): cysteines were not observed on CRL(s) that were strongly engaged (>75%)
polyubiquitination of cytosolic FKBP12 (FLAG-FKBP12): not cytosolic FKBP12
co-immunoprecipitation of C173S- and C178S-DCAF16 with FKBP12_NLS [1]: co-immunoprecipitated with FKBP12_NLS in KB02-SLF-treated cells
co-immunoprecipitation of C177S- and C179S-DCAF16 with FKBP12_NLS [1]: not C177S- and C179S-DCAF16
concentration for degradation of FKBP12_NLS (FLAG-FKBP12_NLS [2]): 0.5 to 2 µM
nuclear FKBP12 (FKBP12_NLS) protein level (FLAG-FKBP12_NLS [2]; 2 μM, 8 or 24 h): substantial reduction in nuclear FKBP12
KB02-SLF-mediated degradation of FKBP12_NLS after shRNA knockdown of DCAF16 (FLAG-FKBP12_NLS [2]; KB02-SLF 2 μM, 8 h): substantially prevented KB02-SLF-mediated degradation of FKBP12_NLS
KB02-SLF-mediated degradation of FKBP12_NLS after shRNA knockdown of DTL (FLAG-FKBP12_NLS [2]; KB02-SLF 2 μM, 8 h): not DTL
time frame across which the reduction in nuclear FKBP12 was sustained (FLAG-FKBP12_NLS [2]; KB02-SLF, FIG. 5A): 4 to 72 h
concentration across which loss of FKBP12_NLS was promoted (FLAG-FKBP12_NLS [2]; reductions in activity at higher concentrations, in µM): 0.5-5
degradation of FLAG-FKBP12_NLS in MDA-MB-231 cells (FLAG-FKBP12_NLS [3]): degrades FLAG-FKBP12_NLS

BRD4 degradation in DCAF16−/− cells (BRD4): substantially blocked
SMILES: Cc1sc2c(c1C)C(c1ccc(Cl)cc1)=N[C@@H](CC(=O)NCCOCCOCCNC(=O)COc1ccc3c(c1)CCCN3C(=O)CCl)c1nnc(C)n1-2 [KB02-JQ1, (S)-2-((1-(2-chloroacetyl)-1,2,3,4-tetrahydroquinolin-6-yl)oxy)-N-(2-(2-(2-(2-(4-(4-chlorophenyl)-2,3,9-trimethyl-6H-thieno[3,2-f][1,2,4]triazolo[4,3-a][1,4]diazepin-6-yl)acetamido)ethoxy)ethoxy)ethyl)acetamide]
co-immunoprecipitation of DCAF16 with BRD4 (BRD4 and DCAF16): co-immunoprecipitated with BRD4 in a KB02-JQ1-dependent manner
